According to patent publication US10898480B1, “Pharmaceutical composition for nasal delivery” (Orexo AB, priority 2019, dated 2021):

Test system: excised porcine nasal tissue
Assay: Ex vivo nasal mucosal absorption, static diffusion (Franz) cell
Conditions: diffusion measured after 7 hours, compared with the other formulations
Method: A standard static diffusion (Franz) cell set up was employed to set up an ex vivo model for nasal mucosa absorption, using an excised porcine nasal tissue.
Diffusion through the tissue was measured after 7 hours and permeation is shown as mean (three repeats) cumulative transport (μg/cm^2; with SD) in FIGS. 8 and 9 for naloxone and nalmefene, respectively.

Substance: benzalkonium chloride
- Apparent permeation coefficient (Papp) of nalmefene: No corresponding absorption enhancement
- Apparent permeation coefficient (Papp) of naloxone: No corresponding absorption enhancement
